Test results reported in ChEMBL document CHEMBL4619799, “Mechanistic Insight into Antiretroviral Potency of 2'-Deoxy-2'-β-fluoro-4'-azidocytidine (FNC) with a Long-Lasting Effect on HIV-1 Prevention” (J Med Chem, 2020).
Calls of active or inactive are those of the source. The calls are words filed in the database; no cut-off is given here. Peptide text beside a SMILES is read from it. * marks the point of attachment. Cbz = O=C(OCc1ccccc1)*

Legend:
[1] = test system: Human immunodeficiency virus 1; assay: Antiviral activity against VSVG pseudotyped HIV1 infected in HEK293 cells preincubated for 3 hrs followed by compound washout and subsequent compound redosing and measured after 72 hrs by luciferase reporter gene based assay; format: functional, organism-based; settings: Human immunodeficiency virus 1, HEK293
[2] = Cytotoxicity against HEK293 cells assessed as cell viability by MTT assay; format: cell-based; settings: human
[3] = molecular target: Virion infectivity factor (Human immunodeficiency virus type 1 group M subtype B (isolate NY5)(HIV-1)) (UniProt P12504); assay: Inhibition of HIV1 HA-tagged Vif expressed in HEK293T cells co-expressing Myc-tagged pcDNA-APOBEC3G assessed as reduction in Vif-mediated A3G degradation at 10 uM measured after 16 hrs by Western blot analysis; format: cell-based; settings: Human immunodeficiency virus 1, HEK-293T
Chain of Virion infectivity factor (Human immunodeficiency virus type 1 group M subtype B (isolate NY5)(HIV-1)) (P12504 whole entry): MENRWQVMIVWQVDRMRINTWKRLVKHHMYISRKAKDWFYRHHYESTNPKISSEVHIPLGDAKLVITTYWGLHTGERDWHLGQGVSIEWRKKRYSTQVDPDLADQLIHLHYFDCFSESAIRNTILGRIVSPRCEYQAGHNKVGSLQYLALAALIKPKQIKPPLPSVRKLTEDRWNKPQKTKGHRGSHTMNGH

[4] = molecular target: Virion infectivity factor (Human immunodeficiency virus type 1 group M subtype B (isolate NY5)(HIV-1)) (UniProt P12504); assay: Inhibition of HIV1 HA-tagged Vif expressed in HEK293T cells co-expressing Myc-tagged pcDNA-APOBEC3G and pcDNA-ubiquitin-His assessed as reduction in Vif-mediated A3G polyubiquitination at 10 uM measured after 16 hrs by Western blot analysis; format: cell-based; settings: Human immunodeficiency virus 1, HEK-293T
[5] = Cmax in monkey plasma at 20 mg/kg, po administered as single dose measured after 72 hrs by LC-MS/MS analysis; format: ADME, organism-based, Macaca mulatta; parameters: dose 20 mg/kg, route oral; settings: rhesus monkey
[6] = Binding affinity to HIV1 Vif and CBFbeta-ELOB-ELOC complex (unknown origin) by CM5 chip based assay
[7] = molecular target: Virion infectivity factor (Human immunodeficiency virus type 1 group M subtype B (isolate NY5)(HIV-1)) (UniProt P12504); assay: Inhibition of HIV1 HA-tagged Vif expressed in HEK293T cells co-expressing Myc-tagged pcDNA-APOBEC3G assessed as reduction in Vif-mediated A3G degradation at 10000 nM measured after 48 hrs by Western blot analysis; format: cell-based; settings: Human immunodeficiency virus 1, HEK-293T
[8] = test system: Human immunodeficiency virus 1; assay: (§1) Antiviral activity against JRFL pseudotyped HIV1 infected in human Hut/CCR5 cells assessed as time needed to reach 50% reduction of virus infection at 10000 nM incubated with cells for 4 hrs prior to compound washout followed by viral infection and measured after 72 hrs by luciferase reporter gene assay; format: functional
[9] = AUC (0 to 24 hrs) in monkey PBMC assessed as 3TC-TP level at 20 mg/kg, po administered as single dose by LC-MS/MS analysis; format: ADME, organism-based, Macaca mulatta; parameters: time < 24 hr, dose 20 mg/kg, route oral; settings: rhesus monkey, in vivo
[10] = molecular target: Virion infectivity factor (Human immunodeficiency virus type 1 group M subtype B (isolate NY5)(HIV-1)) (UniProt P12504); assay: Inhibition of HIV1 HA-tagged Vif expressed in HEK293T cells co-expressing eGFP-tagged pcDNA-APOBEC3G assessed as reduction in Vif-mediated A3G degradation at 10000 nM measured after 48 hrs by flow cytometry; format: cell-based; settings: Human immunodeficiency virus 1, HEK-293T
[11] = Cmax in monkey PBMC assessed as 3TC-TP level at 20 mg/kg, po administered as single dose by LC-MS/MS analysis; format: ADME, organism-based, Macaca mulatta; parameters: dose 20 mg/kg, route oral; settings: rhesus monkey, in vivo
[12] = Tmax in monkey PBMC assessed as 3TC-TP level at 20 mg/kg, po administered as single dose by LC-MS/MS analysis; format: ADME, organism-based, Macaca mulatta; settings: rhesus monkey, in vivo
[13] = Cmax in monkey plasma at 20 mg/kg, po administered as single dose by LC-MS/MS analysis; format: ADME, organism-based, Macaca mulatta; parameters: dose 20 mg/kg, route oral; settings: rhesus monkey
[14] = test system: Human immunodeficiency virus 1; assay: as §1, with “1000” for “10000”; format: functional
[15] = Cytotoxicity against human Hut/CCR5 cells assessed as reduction in cell viability at 1000 to 10000 nM measured after 120 hrs by MTT assay; format: cell-based; settings: 10 µM
[16] = AUC (0 to 24 hrs) in monkey plasma at 20 mg/kg, po administered as single dose by LC-MS/MS analysis; format: ADME, organism-based, Macaca mulatta; parameters: dose 20 mg/kg, time < 24 hr, route oral; settings: rhesus monkey
[17] = Tmax in monkey plasma at 20 mg/kg, po administered as single dose by LC-MS/MS analysis; format: ADME, organism-based, Macaca mulatta; settings: rhesus monkey

CNc1ccn([C@@H]2O[C@@](CO)(N=[N+]=[N-])[C@@H](O)[C@@H]2F)c(=O)n1
EC50 [1]: 6.7 µM
CC50 [2]: ≥ 25 µM

CCNc1ccn([C@@H]2O[C@@](CO)(N=[N+]=[N-])[C@@H](O)[C@@H]2F)c(=O)n1
EC50 [1]: > 10 µM

[N-]=[N+]=N[C@]1(CO)O[C@@H](n2ccc(NC3CCCCC3)nc2=O)[C@@H](F)[C@@H]1O
EC50 [1]: > 10 µM

CN(C)c1ccn([C@@H]2O[C@@](CO)(N=[N+]=[N-])[C@@H](O)[C@@H]2F)c(=O)n1
EC50 [1]: 13 µM
CC50 [2]: ≥ 25 µM

CCN(CC)c1ccn([C@@H]2O[C@@](CO)(N=[N+]=[N-])[C@@H](O)[C@@H]2F)c(=O)n1
EC50 [1]: > 10 µM

[N-]=[N+]=N[C@]1(CO)O[C@@H](n2ccc(N3CCCC3)nc2=O)[C@@H](F)[C@@H]1O
EC50 [1]: > 10 µM

[N-]=[N+]=N[C@]1(CO)O[C@@H](n2ccc(NCCCO)nc2=O)[C@@H](F)[C@@H]1O
EC50 [1]: > 10 µM

[N-]=[N+]=N[C@]1(CO)O[C@@H](n2ccc(NCc3cccnc3)nc2=O)[C@@H](F)[C@@H]1O
EC50 [1]: 1.3 µM
CC50 [2]: ≥ 25 µM

COc1ccc(Nc2ccn([C@@H]3O[C@@](CO)(N=[N+]=[N-])[C@@H](O)[C@@H]3F)c(=O)n2)c(OC)c1
EC50 [1]: 5.2 µM
CC50 [2]: ≥ 25 µM

[N-]=[N+]=N[C@]1(CO)O[C@@H](n2ccc(NO)nc2=O)[C@@H](F)[C@@H]1O
EC50 [1]: 0.7 µM
CC50 [2]: ≥ 25 µM

[N-]=[N+]=N[C@]1(CO)O[C@@H](n2ccc(N(CCO)CCO)nc2=O)[C@@H](F)[C@@H]1O
EC50 [1]: 0.8 µM
CC50 [2]: ≥ 25 µM

CCONc1ccn([C@@H]2O[C@@](CO)(N=[N+]=[N-])[C@@H](O)[C@@H]2F)c(=O)n1
EC50 [1]: > 10 µM

[N-]=[N+]=N[C@]1(CO)O[C@@H](n2ccc(NCc3ccco3)nc2=O)[C@@H](F)[C@@H]1O
EC50 [1]: 0.7 µM
CC50 [2]: ≥ 25 µM

[N-]=[N+]=N[C@]1(CO)O[C@@H](n2ccc(N3CCOCC3)nc2=O)[C@@H](F)[C@@H]1O
EC50 [1]: > 10 µM

[N-]=[N+]=N[C@]1(CO)O[C@@H](n2ccc(NCCc3ccc(O)cc3)nc2=O)[C@@H](F)[C@@H]1O
EC50 [1]: 5.7 µM
CC50 [2]: ≥ 25 µM

[N-]=[N+]=N[C@]1(CO)O[C@@H](n2ccc(NCCO)nc2=O)[C@@H](F)[C@@H]1O
EC50 [1]: > 10 µM

CON(C)c1ccn([C@@H]2O[C@@](CO)(N=[N+]=[N-])[C@@H](O)[C@@H]2F)c(=O)n1
EC50 [1]: > 10 µM

CONc1ccn([C@@H]2O[C@@](CO)(N=[N+]=[N-])[C@@H](O)[C@@H]2F)c(=O)n1
EC50 [1]: > 10 µM

CC(C)C[C@@H](C=O)NC(=O)[C@H](CC(C)C)NC(=O)[C@H](CC(C)C)NC(=O)OCc1ccccc1 (Cbz-Leu-Leu-Leu-aldehyde)
inhibition [3]: Active
inhibition [4]: Active

Nc1ccn([C@@H]2CS[C@H](CO)O2)c(=O)n1 [LAMIVUDINE]
Cmax [5]: 93.6 nM
Kd [6]: 1510 nM
EC50 [1]: 0.3 µM
inhibition [7]: inactive
Time [8]: 42.7 to 42.74 h
AUC [9]: 0.13 nmol·h/L
inhibition [10]: inactive
Cmax [11]: 0.03 nM
Tmax [12]: 1 h
Cmax [13]: 31.3 µM
Time [14]: 26.75 h
CC50 [2]: ≥ 25 µM
Activity [15]: Non-Toxic
AUC(0-t) at 24 h [16]: 395 µM·h
Tmax [17]: 1 h
